Read-outs that look alike come from different tables or passages of the source.
What was measured:
[1] = target: T1, Aurora A (Homo sapiens, UniProt O14965); test: Aurora A Inhibition Assay (Z-Lyte); assay type: biochemical; conditions: read-out: Aurora A relative inhibition percentage at a dose of 1 μM
T1 construct: purchased Invitrogen PV3612
T1 sequence (O14965 1-403): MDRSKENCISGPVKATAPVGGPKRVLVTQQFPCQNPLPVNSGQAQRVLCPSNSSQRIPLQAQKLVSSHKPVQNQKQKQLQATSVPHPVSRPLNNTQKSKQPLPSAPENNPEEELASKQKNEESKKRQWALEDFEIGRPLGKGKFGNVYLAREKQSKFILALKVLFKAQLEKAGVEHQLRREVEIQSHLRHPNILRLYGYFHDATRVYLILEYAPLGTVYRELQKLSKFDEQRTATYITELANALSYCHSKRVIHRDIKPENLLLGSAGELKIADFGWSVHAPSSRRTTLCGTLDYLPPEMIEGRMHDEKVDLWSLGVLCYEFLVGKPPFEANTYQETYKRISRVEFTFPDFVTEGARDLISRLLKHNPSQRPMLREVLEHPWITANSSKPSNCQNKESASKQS
Procedure: Aurora A inhibition was determined using the Z-Lyte assay kit from Invitrogen. The assay was performed using the recommended manufacturer's instructions with 20 μM ATP and 12 nM Aurora A (Invitrogen cat # PV3612). The % inhibition values were determined according to the manufacturer's directions and IC50 values were obtained using a non-linear 4 point logistic curve fit (XLfit4, IDBS)

[2] = system: A549 lung cancer cell line; test: Cell growth inhibition, Sulforhodamine B assay (SRB); assay type: cell-based; conditions: Homo sapiens, read-out: Cell Line GI50 Range A-549
Procedure: (§1) The cells were cultured for 5 days before the Sulforhodamine B assay (SRB) was performed to determine the compound's cell growth inhibition activity.
(§2) Sulforhodamine B (purchased from Sigma, Oakville, ON, Canada) is a water-soluble dye that binds to the basic amino acids of the cellular proteins. Thus, colorimetric measurement of the bound dye provides an estimate of the total protein mass that is related to the cell number. the cells are fixed in situ by gently aspirating off the culture media and adding 50 μl ice cold 10% Trichloroacetic Acid (TCA) per well and incubate at 4° C. for 30-60 min, The plates are washed with water five times and allowed to air dry for 5 min. […] Following staining, plates are washed four times with 1% acetic acid to remove unbound dye and then allowed to air dry for 5 min. […] Absorbance is read at 570 nm.
(§3) The percentage (%) of relative growth inhibition was calculated by comparing to DMSO treated only cells (100%). GI50's were determined for compounds with cytotoxic activity. The GI50 was calculated using GraphPad PRISM software (GraphPad Software, Inc., San Diego, Calif., USA).

[3] = system: MCF-7 luminal breast cancer cell line; test: as above; assay type: cell-based; conditions: Homo sapiens, MCF7, 120 h, 5 days culture, SRB
Procedure: as §1, §2, §3

[4] = system: SW620 colon cancer cell line; test: as above; assay type: cell-based; conditions: Homo sapiens, SW-620, 120 h, 5 days culture, SRB
Procedure: as §1, §2, §3

[5] = system: HCC1954 basal breast cancer cell line; test: as above; assay type: cell-based; conditions: Homo sapiens, read-out: Cell Line GI50 Range HCC-1954
Procedure: as §1, §2, §3

[6] = system: MDA-MB-468 basal breast cancer cell line; test: as above; assay type: cell-based; conditions: Homo sapiens, read-out: Cell Line GI50 Range MDA-MB-468
Procedure: as §1, §2, §3

[7] = target: T2, human PLK4 (Homo sapiens, UniProt O00444); test: PLK4 Inhibition Assay (indirect ELISA); assay type: biochemical; conditions: 15 μM ATP; read-out: PLK4 IC50 Ranges
T2 construct: amino terminal GST fusion of residues 1-391 of human PLK4; made in house; host or cells: E. coli
T2 sequence (O00444 1-391): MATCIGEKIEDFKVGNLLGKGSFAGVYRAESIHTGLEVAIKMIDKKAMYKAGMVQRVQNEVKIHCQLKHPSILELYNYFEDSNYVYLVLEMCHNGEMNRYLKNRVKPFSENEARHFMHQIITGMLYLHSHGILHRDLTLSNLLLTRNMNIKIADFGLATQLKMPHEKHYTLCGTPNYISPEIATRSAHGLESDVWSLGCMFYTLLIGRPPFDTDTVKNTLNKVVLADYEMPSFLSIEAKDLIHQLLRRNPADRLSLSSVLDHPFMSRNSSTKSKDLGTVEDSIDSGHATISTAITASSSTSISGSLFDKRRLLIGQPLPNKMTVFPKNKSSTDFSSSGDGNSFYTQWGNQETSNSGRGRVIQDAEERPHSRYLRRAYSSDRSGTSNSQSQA
Procedure: The protein was purified from clarified cell extracts after induction at 15° C. overnight using glutathione sepharose, gel permeation chromatography, and ion exchange (Resource Q). The resulting protein was dephosphorylated with lambda phosphatase (NEB cat# P0753), and resolved from the phosphatase using gluthione sepharose. The dephosphorylated GST-PLK4 was stored in aliquots at −80° C. until use.
PLK4 activity was measured using an indirect ELISA detection system. […] The colourimetric reaction was allowed to continue for 5 minutes, followed by addition of stop solution (0.5 N sulphuric acid), and quantified by detection at 450 nm with either a monochromatic or filter based plate reader (Molecular Devices M5 or Beckman DTX880, respectively).
Compounds were pre-incubated in the presence of enzyme for 15 minutes prior to addition of ATP and the activity remaining quantified using the above described activity assay. […] The IC50 value was determined using a non-linear 4 point logistic curve fit (XLfit4, IDBS) with the formula; (A+(B/(1+((x/C){grave over ( )}D)))), where A=background value, B=range, C=inflection point, D=curve fit parameter.

[8] = 120 h, A549 lung cancer cell line, 5 days culture, SRB
[9] = MCF-7 luminal breast cancer cell line, read-out: Cell Line GI50 Range MCF-7
[10] = SW620 colon cancer cell line, read-out: Cell Line GI50 Range SW-620
[11] = HCC1954, 120 h, HCC1954 basal breast cancer cell line, 5 days culture, SRB
[12] = 120 h, MDA-MB-468 basal breast cancer cell line, 5 days culture, SRB
[13] = 120 h, HCC1954 basal breast cancer cell line, 5 days culture, SRB

| SMILES | GI50 [2, 8] | GI50 [3, 9] | GI50 [4, 10] | GI50 [6, 12] | inhibition at 1 µM ([1]; 1 μM compound, 20 μM ATP) | other results |
| --- | --- | --- | --- | --- | --- | --- |
| COc1ccc2c(c1)[C@@]1(C[C@@H]1c1ccc3c(/C=C/c4ccc(CN5CCOCC5)cc4)n[nH]c3c1)C(=O)N2 (racemic) [Example A41, (1R*,2S*)-(E)-5′-methoxy-2-(3-(4-(morpholinomethyl)styryl)-1H-indazol-6-yl)spiro[cyclopropane-1,3′-indolin]-2′-one 2,2,2-trifluoroacetate] |  |  |  |  | > 50% |  |
| O=C1Nc2ccccc2[C@@]12C[C@@H]2c1ccc2c(/C=C/c3ccc(CN4CCCCC4)cc3)n[nH]c2c1 (racemic) [Example A57, (1R*,2S*)-(E)-2-(3-(4-(piperidin-1-ylmethyl)styryl)-1H-indazol-6-yl)spiro[cyclopropane-1,3′-indolin]-2′-one 2,2,2-trifluoroacetate] |  |  |  |  | > 50% |  |
| O=C1Nc2ccccc2[C@@]12C[C@@H]2c1ccc2c(/C=C/c3ccc(CN4CCCC4)cc3)n[nH]c2c1 (racemic) [Example A60, (1R*,2S*)-(E)-2-(3-(4-(pyrolidin-1-ylmethyl)styryl)-1H-indazol-6-yl)spiro[cyclopropane-1,3′-indolin]-2′-one 2,2,2-trifluoroacetate] |  |  |  |  | > 50% |  |
| CN1CCN(c2ccc(-c3n[nH]c4cc([C@@H]5C[C@@]56C(=O)Nc5ccc(C(F)(F)F)cc56)ccc34)cc2)CC1 (racemic) [Example A170, (1R*,2S*)-2-(3-(4-(4-methylpiperazin-1-yl)phenyl)-1H-indazol-6-yl)-5′-(trifluoromethyl)spiro[cyclopropane-1,3′-indolin]-2′-one 2,2,2-trifluoroacetate] |  |  |  |  |  | IC50 [7]: 100 to 1000 nM |
| COc1ccc2c(c1)[C@@]1(C[C@@H]1c1ccc3c(/C=C/c4ccc(CCN5CCOCC5)cc4)n[nH]c3c1)C(=O)N2 (racemic) [Example A178, (1R*,2S*)-(E)-5′-methoxy-2-(3-(4-(2-morpholinoethyl)styryl)-1H-indazol-6-yl)spiro[cyclopropane-1,3′-indolin]-2′-one 2,2,2-trifluoroacetate] | < 100 nM | < 100 nM | < 100 nM | < 100 nM |  | GI50 [5, 11]: 100 to 1000 nM |
| COc1ccc2c(c1)[C@@]1(C[C@@H]1c1ccc3c(/C=C/c4csc(CN5CCOCC5)c4)n[nH]c3c1)C(=O)N2 (racemic) [Example A184, (1R*,2S*)-5′-methoxy-2-(3-((E)-2-(5-(morpholinomethyl)thiophen-3-yl)vinyl)-1H-indazol-6-yl)spiro[cyclopropane-1,3′-indolin]-2′-one 2,2,2-trifluoroacetate] | < 100 nM | 100 to 1000 nM | < 100 nM | < 100 nM | > 50% | GI50 [5, 13]: > 10000 nM |
| Cc1ccc2c(c1)[C@@]1(C[C@@H]1c1ccc3c(/C=C/c4ccc(CN5CCOCC5)cc4)n[nH]c3c1)C(=O)N2 (racemic) [Example A196, (1R*,2S*)-(E)-5′-methyl-2-(3-(4-(morpholinomethyl)styryl)-1H-indazol-6-yl)spiro[cyclopropane-1,3′-indolin]-2′-one 2,2,2-trifluoroacetate] |  |  |  |  |  | inhibition at 1 µM [1]: > 50% |
| COc1ccc2c(c1)[C@@]1(C[C@@H]1c1ccc3c(/C=C/c4cc(F)c(CN5CCOCC5)c(F)c4)n[nH]c3c1)C(=O)N2 (racemic) [Example A217, (1R*,2S*)-(E)-2-(3-(3,5-difluoro-4-(morpholinomethyl)styryl-1H-indazol-6-yl)-5′-methoxyspiro[cyclopropane-1,3′-indolin]-2′-one 2,2,2-trifluoroacetate] |  |  |  |  | > 50% |  |
| O=C1Nc2ccccc2[C@]12C[C@H]2c1ccc2cn[nH]c2c1 (relative stereo) [Example A2, (1R*,2S*)-2-(1H-indazol-6-yl)spiro[cyclopropane-1,3′-indolin]-2′-one] |  |  |  |  |  | GI50 ([2]; A549, 120 h): > 10000 nM; GI50 ([3]; read-out: Cell Line GI50 Range MCF-7, MCF-7 luminal breast cancer cell line): > 10000 nM; GI50 ([4]; read-out: Cell Line GI50 Range SW-620, SW620 colon cancer cell line): > 10000 nM; GI50 ([5]; HCC1954, 120 h): > 10000 nM; GI50 ([6]; MDA-MB-468, 120 h): > 10000 nM |
| COc1ccc2c(c1)[C@]1(C[C@@H]1c1ccc3c(-c4ccc(N5CCN(C)CC5)nc4)n[nH]c3c1)C(=O)N2 (relative stereo) [Example A17, (1R*,2R*)-5′-Methoxy-2-(3-(6-(4-methylpiperazin-1-yl)pyridin-3-yl)-1H-indazol-6-yl)spiro[cyclopropane-1,3′-indolin]-2′-one] |  |  |  |  | < 50% |  |

Now from value to compound, other results behind:

| GI50 [2, 8] | GI50 [3, 9] | GI50 [4, 10] | GI50 [6, 12] | SMILES | inhibition at 1 µM ([1]; 1 μM compound, 20 μM ATP) | other results |
| --- | --- | --- | --- | --- | --- | --- |
| < 100 nM | < 100 nM | < 100 nM | < 100 nM | COc1ccc2c(c1)[C@@]1(C[C@@H]1c1ccc3c(-c4ccc(N5CCN(C(C)C)CC5)cc4)n[nH]c3c1)C(=O)N2 (racemic) [Example A96, (1R*,2S*)-2-(3-(4-(4-isopropylpiperazin-1-yl)phenyl)-1H-indazol-6-yl)-5′-methoxyspiro[cyclopropane-1,3′-indolin]-2′-one] | < 50% | GI50 [5, 11]: 1000 to 10000 nM |
| < 100 nM | < 100 nM | < 100 nM | < 100 nM | COc1ccc2c(c1)[C@@]1(C[C@@H]1c1ccc3c(/C=C/c4ccc(N5CCN(C)CC5)cc4)n[nH]c3c1)C(=O)N2 (racemic) [Example A174, (1R*,2S*)-(E)-5′-methoxy-2-(3-(4-(4-methylpiperazin-1-yl)styryl)-1H-indazol-6-yl)spiro[cyclopropane-1,3′-indolin]-2′-one 2,2,2-trifluoroacetate] |  | GI50 [5, 13]: 100 to 1000 nM |
| < 100 nM | < 100 nM | < 100 nM | < 100 nM | CCN1CCN(c2ccc(/C=C/c3n[nH]c4cc([C@@H]5C[C@@]56C(=O)Nc5ccc(OC)cc56)ccc34)cc2)CC1 (racemic) [Example A188, (1R*,2S*)-(E)-2-(3-(4-(4-ethylpiperazin-1-yl)styryl)-1H-indazol-6-yl)-5′-methoxyspiro[cyclopropane-1,3′-indolin]-2′-one 2,2,2-trifluoroacetate] | > 50% | GI50 [5, 13]: 100 to 1000 nM |

Source: US8481525B2, “Kinase inhibitors and method of treating cancer with same” (University of Health Network, priority 2009, dated 2013)
